Assay results as given in ChEMBL document CHEMBL1134224, “Synthetic analogues of SB-219383. Novel C-glycosyl peptides as inhibitors of tyrosyl tRNA synthetase” (Bioorg Med Chem Lett, 2001).

How the values were obtained:
[1] = target: Tyrosine--tRNA ligase (Staphylococcus aureus); assay: Inhibitory activity against Staphylococcus aureus tyrosyl tRNA synthetase (YRS) using aminoacylation assay
[2] = tested on: Tyrosine--tRNA ligase (Staphylococcus aureus); assay: Inhibitory activity (3 uM) against Staphylococcus aureus tyrosyl tRNA synthetase (YRS) using aminoacylation assay; No inhibition

Compound	IC50 [1]	IC50 [2]
N[C@@H](Cc1ccc(O)cc1)C(=O)N[C@H](C(=O)O)[C@H]1[C@H](O)[C@@H](O)[C@@H](O)CN1O	1.2 nM	
N[C@@H](Cc1ccc(O)cc1)C(=O)N[C@H](C(=O)O)[C@H]1OC[C@@H](O)[C@@H](O)[C@@H]1O		Not Active
N[C@@H](Cc1ccc(O)cc1)C(=O)N[C@@H](C(=O)O)[C@H]1OC[C@@H](O)[C@@H](O)[C@@H]1O		Not Active
